Experimental data as given in article PMC3128435 (Journal of physics. Condensed matter : an Institute of …, 2010).

Target: maltoporin (Escherichia coli, UniProt P02943)
Assay: single-channel current blockage in planar lipid bilayer
Assay type: binding
Conditions: 1.0 M NaCl, pH 7, 150 mV, 23 °C

Chain of maltoporin (P02943 26-446): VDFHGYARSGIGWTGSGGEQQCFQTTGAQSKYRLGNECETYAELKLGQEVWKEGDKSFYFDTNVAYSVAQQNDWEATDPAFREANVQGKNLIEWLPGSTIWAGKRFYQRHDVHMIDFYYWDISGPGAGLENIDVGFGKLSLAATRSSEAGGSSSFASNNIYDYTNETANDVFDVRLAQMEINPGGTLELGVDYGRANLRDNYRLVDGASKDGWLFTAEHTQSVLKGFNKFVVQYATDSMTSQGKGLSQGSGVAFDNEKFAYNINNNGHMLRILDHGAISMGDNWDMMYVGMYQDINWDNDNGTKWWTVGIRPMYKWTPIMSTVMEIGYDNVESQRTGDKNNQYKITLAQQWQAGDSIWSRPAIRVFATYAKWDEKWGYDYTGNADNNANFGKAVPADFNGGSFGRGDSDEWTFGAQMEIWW

Row | average lifetime of the channel complex (cis-side addition) | average lifetime of the channel complex | SMILES
1 | 7.3 ± 0.5 ms | – | OC[C@H]1O[C@@H]2O[C@H]3[C@H](O)[C@@H](O)[C@@H](O[C@H]4[C@H](O)[C@@H](O)[C@@H](O[C@H]5[C@H](O)[C@@H](O)[C@@H](O[C@H]6[C@H](O)[C@@H](O)[C@@H](O[C@H]7[C@H](O)[C@@H](O)[C@@H](O[C@H]8[C@H](O)[C@@H](O)[C@@H](O[C@H]1[C@H](O)[C@H]2O)O[C@@H]8CO)O[C@@H]7CO)O[C@@H]6CO)O[C@@H]5CO)O[C@@H]4CO)O[C@@H]3CO [CD, β-cyclodextrin]
2 | – | 2.0 ± 0.3 ms | OC[C@H]1O[C@H](O[C@H]2[C@H](O)[C@@H](O)[C@@H](O[C@H]3[C@H](O)[C@@H](O)[C@@H](O[C@H]4[C@H](O)[C@@H](O)[C@@H](O[C@H]5[C@H](O)[C@@H](O)[C@@H](O[C@H]6[C@H](O)[C@@H](O)[C@@H](O[C@H]7[C@H](O)[C@@H](O)C(O)O[C@@H]7CO)O[C@@H]6CO)O[C@@H]5CO)O[C@@H]4CO)O[C@@H]3CO)O[C@@H]2CO)[C@H](O)[C@@H](O)[C@@H]1O (some centres unmarked) [m7, maltoheptaose]
